Laboratory results reported in article PMC10178848, “Modulating fast skeletal muscle contraction protects skeletal muscle in animal models of Duchenne muscular dystrophy” (The Journal of Clinical Investigation, 2023).

Columns and labels:
Human Bicep myofibrils = assay: Myofibril ATPase, human bicep; format: biochemical
Description: Myofibrils were prepared from various animals and tissues: rabbit psoas muscle and porcine cardiac muscle were purchased from Pel-Freez Biologicals. Human bicep and soleus muscle were purchased from BioIVT, and neonatal rat muscle was obtained in house. All myofibrils were prepared using published methods ([21]).
A lactate dehydrogenase/pyruvate kinase enzyme-coupled system ([62]) was used to monitor ATP hydrolysis rates in various muscle preparations. Rabbit psoas myofibrils were used for high-throughput screening at pCa 6.25 at 0.25 mg/mL. A multidrop cassette (Thermo Fisher Scientific) dispensed 10 μL of the coupled enzyme system, calcium, and myofibrils to 10 μL ATP, NADH and PEP to initiate the reaction prior to reading on a plate reader (Envision, Perkin Elmer) for 10 minutes per plate at room temperature. Hits were reconfirmed, and secondary assays were used to evaluate selectivity, including bovine cardiac myofibrils (pCa 5.86) and enzyme coupled hits with a hexokinase screen (Sigma-Aldrich).

[1] = test system: slow skeletal rat soleus fibers; assay: Skinned fiber force, rat soleus; settings: 100% type I, EDG-5506
Description: Measurement of isometric force in skinned fibers from rabbit psoas, rat soleus, and rat cardiac trabeculae were performed as described previously ([65]) with an 802D fiber system (Aurora Scientific). Muscle bundles were thawed from –80°C and placed in relaxing solution. Single fibers were transferred to the testing apparatus with steel pins connected to a force transducer and motor (model 403A and 322C, Aurora Scientific), and collodion glue was applied. Temperature was set to 15°C for skeletal fibers and 30°C for rat cardiac trabeculae. The wells of the 802D were filled with different ratios of relaxing and activating pCa solutions as detailed previously ([65]). All control solutions contained 1% final DMSO. Traces were compared between control and compound runs to evaluate isometric force and calcium sensitivity.

WT and mdx mice = assay: Voluntary wheel running; format: in vivo, mouse; settings: 50 ppm chow
Description: Prior to in vivo assessments, mice were dosed PO after a 2-hour fast with 10 mL/Kg suspensions. Grip strength and rotarod assessments were performed masked, 4 hours after dosing using published protocols ([66], [67]). Grip strength was performed with a Columbus Instruments Rodent Force Meter. Forepaw strength represented the average of 5 trials with 30-second rest periods, normalized by BW. Rotarod endurance was performed with a Columbus Instruments RotaMax. Mice were placed on the device drum at 1 rpm, which accelerated 1 rpm every 3 seconds to 12 rpm and a maximal time of 500 seconds. This was repeated 3 times with a 3-minute rest and total time reported. Voluntary wheel running performance was assessed with a customized system. Timestamped RPMs were measured 24 hours per day by infrared sensors, and a custom software calculated distance. Whole-body EBD was visualized after intravenous administration ([35]). EBD in PBS at 10 mg/mL was sterile filtered, and 50 μL/10 g BW was injected via tail vein. After 24 hours, animals were sacrificed, skin was removed and fixed in 4% formalin for 24 hours, and photographed using a Leica/Lumix camera.

CDK9 = molecular target: T1, CDK9 (Homo sapiens, UniProt P50750); assay: KINOMEscan scanEDGE; format: binding; settings: 20 uM
T1 construct: purchased Eurofins DiscoverX (KINOMEscan; SAFETYscan E/IC50 ELECT)

ERBB2 = molecular target: T2, ERBB2 (Homo sapiens, UniProt P04626); assay: KINOMEscan scanEDGE; format: binding; settings: 20 uM
T2 construct: purchased Eurofins DiscoverX (KINOMEscan; SAFETYscan E/IC50 ELECT)

GSK3B = molecular target: T3, GSK3B (Homo sapiens, UniProt P49841); assay: KINOMEscan scanEDGE; format: binding; settings: 20 uM
T3 construct: purchased Eurofins DiscoverX (KINOMEscan; SAFETYscan E/IC50 ELECT)

[2] = molecular target: T4, JAK2(JH1domain-catalytic) (Homo sapiens, UniProt O60674); assay: KINOMEscan scanEDGE; format: binding; settings: 20 uM
T4 construct: JAK2(JH1domain-catalytic); purchased Eurofins DiscoverX (KINOMEscan; SAFETYscan E/IC50 ELECT)

[3] = molecular target: T5, JAK3(JH1domain-catalytic) (Homo sapiens, UniProt P52333); assay: KINOMEscan scanEDGE; format: binding; settings: 20 uM
T5 construct: JAK3(JH1domain-catalytic); purchased Eurofins DiscoverX (KINOMEscan; SAFETYscan E/IC50 ELECT)

LKB1 = molecular target: T6, LKB1 (Homo sapiens, UniProt Q15831); assay: KINOMEscan scanEDGE; format: binding; settings: 20 uM
T6 construct: purchased Eurofins DiscoverX (KINOMEscan; SAFETYscan E/IC50 ELECT)

PLK3 = molecular target: T7, PLK3 (Homo sapiens, UniProt Q9H4B4); assay: KINOMEscan scanEDGE; format: binding; settings: 20 uM
T7 construct: purchased Eurofins DiscoverX (KINOMEscan; SAFETYscan E/IC50 ELECT)

GR = molecular target: T8, GR (Homo sapiens, UniProt P04150); assay: SAFETYscan NHR Protein Interaction; format: cell-based; parameters: dose or concentration left out as unconfirmed
T8 construct: purchased Eurofins DiscoverX (KINOMEscan; SAFETYscan E/IC50 ELECT)
Description: (§1) The specificity of EDG-5506 for fast skeletal myosin over other, unrelated proteins was confirmed using two off-target binding and activity screens. […] A second off-target panel (SAFETYscan E/IC50 ELECT, Eurofins DiscoverX) tested in vitro enzyme activity against 78 proteins, including GPCR, ion channel, kinases, nuclear hormone receptors, and transporters. In all assays, the IC50 of EDG-5506 was more than 10 μM (Supplemental Data File 1).

AChE = molecular target: T9, AChE (Homo sapiens, UniProt P22303); assay: SAFETYscan Enzymatic; format: biochemical; parameters: dose or concentration left out as unconfirmed; settings: read-out: Max Response (%) (Antagonist)
T9 construct: purchased Eurofins DiscoverX (KINOMEscan; SAFETYscan E/IC50 ELECT)
Description: as §1

COX1 = molecular target: T10, COX1 (Homo sapiens, UniProt P23219); assay: SAFETYscan Enzymatic; format: biochemical; parameters: dose or concentration left out as unconfirmed; settings: read-out: Max Response (%) (Antagonist)
T10 construct: purchased Eurofins DiscoverX (KINOMEscan; SAFETYscan E/IC50 ELECT)
Description: as §1

COX2 = molecular target: T11, COX2 (Homo sapiens, UniProt P35354); assay: SAFETYscan Enzymatic; format: biochemical; parameters: dose or concentration left out as unconfirmed; settings: read-out: Max Response (%) (Antagonist)
T11 construct: purchased Eurofins DiscoverX (KINOMEscan; SAFETYscan E/IC50 ELECT)
Description: as §1

MAOA = molecular target: T12, MAOA (Homo sapiens, UniProt P21397); assay: SAFETYscan Enzymatic; format: biochemical; parameters: dose or concentration left out as unconfirmed; settings: read-out: Max Response (%) (Antagonist)
T12 construct: purchased Eurofins DiscoverX (KINOMEscan; SAFETYscan E/IC50 ELECT)
Description: as §1

PDE3A = molecular target: T13, PDE3A (Homo sapiens, UniProt Q14432); assay: SAFETYscan Enzymatic; format: biochemical; parameters: dose or concentration left out as unconfirmed; settings: read-out: Max Response (%) (Antagonist)
T13 construct: purchased Eurofins DiscoverX (KINOMEscan; SAFETYscan E/IC50 ELECT)
Description: as §1

PDE4D2 = molecular target: T14, PDE4D2 (Homo sapiens, UniProt Q08499); assay: SAFETYscan Enzymatic; format: biochemical; parameters: dose or concentration left out as unconfirmed; settings: read-out: Max Response (%) (Antagonist)
T14 construct: purchased Eurofins DiscoverX (KINOMEscan; SAFETYscan E/IC50 ELECT)
Description: as §1

T8 sequence (P04150 whole entry): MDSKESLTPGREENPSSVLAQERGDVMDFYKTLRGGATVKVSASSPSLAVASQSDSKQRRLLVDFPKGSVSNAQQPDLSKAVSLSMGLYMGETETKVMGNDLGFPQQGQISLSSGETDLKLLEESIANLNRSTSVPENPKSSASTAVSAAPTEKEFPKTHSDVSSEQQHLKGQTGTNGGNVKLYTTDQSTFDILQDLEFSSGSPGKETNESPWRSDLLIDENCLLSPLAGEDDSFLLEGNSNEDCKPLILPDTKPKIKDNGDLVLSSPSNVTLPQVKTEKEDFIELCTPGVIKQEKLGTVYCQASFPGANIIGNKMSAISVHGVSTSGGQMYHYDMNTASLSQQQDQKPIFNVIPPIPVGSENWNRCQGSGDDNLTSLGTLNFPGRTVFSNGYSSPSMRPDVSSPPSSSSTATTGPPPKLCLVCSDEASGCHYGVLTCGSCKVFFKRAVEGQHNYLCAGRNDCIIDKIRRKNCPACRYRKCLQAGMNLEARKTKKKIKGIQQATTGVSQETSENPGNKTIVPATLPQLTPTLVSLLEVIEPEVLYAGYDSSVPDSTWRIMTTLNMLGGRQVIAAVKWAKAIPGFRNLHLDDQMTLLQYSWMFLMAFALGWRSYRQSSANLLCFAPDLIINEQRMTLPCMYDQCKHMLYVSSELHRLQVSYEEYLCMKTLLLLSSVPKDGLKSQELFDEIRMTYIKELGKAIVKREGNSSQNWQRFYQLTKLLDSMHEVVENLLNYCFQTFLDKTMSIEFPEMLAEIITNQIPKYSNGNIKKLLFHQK
T6 sequence (Q15831 whole entry): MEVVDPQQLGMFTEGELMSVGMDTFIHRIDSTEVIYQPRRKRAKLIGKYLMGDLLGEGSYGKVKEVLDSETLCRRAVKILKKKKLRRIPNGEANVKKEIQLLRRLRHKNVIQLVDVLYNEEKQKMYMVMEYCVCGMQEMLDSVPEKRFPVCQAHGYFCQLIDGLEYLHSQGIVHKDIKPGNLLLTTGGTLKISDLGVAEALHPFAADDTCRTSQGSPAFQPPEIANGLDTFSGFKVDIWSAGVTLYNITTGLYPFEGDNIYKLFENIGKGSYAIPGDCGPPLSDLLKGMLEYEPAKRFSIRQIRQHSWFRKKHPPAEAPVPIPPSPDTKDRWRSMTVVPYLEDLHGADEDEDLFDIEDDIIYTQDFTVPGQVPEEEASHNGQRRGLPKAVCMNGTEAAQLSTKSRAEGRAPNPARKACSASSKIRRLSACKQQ
T3 sequence (P49841 whole entry): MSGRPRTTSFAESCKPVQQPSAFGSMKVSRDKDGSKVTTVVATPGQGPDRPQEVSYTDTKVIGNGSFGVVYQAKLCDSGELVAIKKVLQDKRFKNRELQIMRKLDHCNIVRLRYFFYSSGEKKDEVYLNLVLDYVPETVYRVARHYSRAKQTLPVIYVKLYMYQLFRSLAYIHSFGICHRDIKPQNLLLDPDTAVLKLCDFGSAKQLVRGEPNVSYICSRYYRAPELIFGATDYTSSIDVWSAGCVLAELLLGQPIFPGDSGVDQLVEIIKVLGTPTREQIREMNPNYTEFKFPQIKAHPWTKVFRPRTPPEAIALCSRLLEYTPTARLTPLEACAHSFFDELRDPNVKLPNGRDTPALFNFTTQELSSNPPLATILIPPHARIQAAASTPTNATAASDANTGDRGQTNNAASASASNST
T1 sequence (P50750 whole entry): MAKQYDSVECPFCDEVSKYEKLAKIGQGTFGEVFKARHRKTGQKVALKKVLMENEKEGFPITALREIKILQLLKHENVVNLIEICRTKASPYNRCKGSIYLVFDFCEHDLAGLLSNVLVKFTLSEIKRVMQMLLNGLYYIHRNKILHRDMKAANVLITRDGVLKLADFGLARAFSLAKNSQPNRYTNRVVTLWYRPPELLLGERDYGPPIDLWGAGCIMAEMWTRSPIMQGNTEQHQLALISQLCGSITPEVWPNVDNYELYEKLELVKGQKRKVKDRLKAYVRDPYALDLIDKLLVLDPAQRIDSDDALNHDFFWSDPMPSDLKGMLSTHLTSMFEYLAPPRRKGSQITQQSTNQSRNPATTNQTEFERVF
T5 sequence (P52333 811-1124 limits assumed): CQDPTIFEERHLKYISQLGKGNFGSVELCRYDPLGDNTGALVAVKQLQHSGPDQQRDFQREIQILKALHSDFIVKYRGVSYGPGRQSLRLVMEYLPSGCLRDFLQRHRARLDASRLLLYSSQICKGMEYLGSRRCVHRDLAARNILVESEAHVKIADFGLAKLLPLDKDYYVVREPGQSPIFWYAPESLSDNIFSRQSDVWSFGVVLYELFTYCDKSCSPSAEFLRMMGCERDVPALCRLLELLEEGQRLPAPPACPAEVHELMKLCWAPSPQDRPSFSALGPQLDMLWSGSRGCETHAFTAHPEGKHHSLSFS
T10 sequence (P23219 24-599): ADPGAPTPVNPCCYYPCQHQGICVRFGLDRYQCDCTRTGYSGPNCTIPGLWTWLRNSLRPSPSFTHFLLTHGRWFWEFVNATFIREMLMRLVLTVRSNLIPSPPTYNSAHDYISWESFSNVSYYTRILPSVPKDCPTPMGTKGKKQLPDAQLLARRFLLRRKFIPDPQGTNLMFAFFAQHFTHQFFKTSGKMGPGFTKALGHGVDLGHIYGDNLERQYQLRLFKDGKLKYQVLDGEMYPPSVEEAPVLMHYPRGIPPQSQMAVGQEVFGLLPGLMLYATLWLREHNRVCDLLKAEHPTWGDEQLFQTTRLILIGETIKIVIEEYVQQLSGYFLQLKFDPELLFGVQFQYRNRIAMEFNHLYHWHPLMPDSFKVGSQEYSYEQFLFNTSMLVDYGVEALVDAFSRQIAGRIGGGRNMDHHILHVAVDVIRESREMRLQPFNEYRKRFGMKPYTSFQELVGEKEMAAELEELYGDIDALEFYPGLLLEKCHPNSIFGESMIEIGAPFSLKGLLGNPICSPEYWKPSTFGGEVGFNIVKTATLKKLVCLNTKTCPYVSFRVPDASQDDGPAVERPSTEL
T11 sequence (P35354 18-604): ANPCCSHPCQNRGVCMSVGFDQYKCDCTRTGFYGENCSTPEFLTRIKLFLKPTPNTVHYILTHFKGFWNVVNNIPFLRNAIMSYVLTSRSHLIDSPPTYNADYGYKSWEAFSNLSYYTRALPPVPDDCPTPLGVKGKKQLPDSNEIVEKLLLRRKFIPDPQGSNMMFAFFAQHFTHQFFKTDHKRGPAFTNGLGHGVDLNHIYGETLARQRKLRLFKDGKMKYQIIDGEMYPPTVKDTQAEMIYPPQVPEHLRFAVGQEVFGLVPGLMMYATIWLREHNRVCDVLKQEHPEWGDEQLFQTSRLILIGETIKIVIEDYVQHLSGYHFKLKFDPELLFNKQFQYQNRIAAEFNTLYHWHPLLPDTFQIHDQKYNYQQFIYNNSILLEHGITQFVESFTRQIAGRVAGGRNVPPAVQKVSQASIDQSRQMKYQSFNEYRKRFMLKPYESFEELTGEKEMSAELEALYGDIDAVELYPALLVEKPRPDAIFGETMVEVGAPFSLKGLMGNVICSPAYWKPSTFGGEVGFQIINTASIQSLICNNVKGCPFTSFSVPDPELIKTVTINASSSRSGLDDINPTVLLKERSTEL
T13 sequence (Q14432 whole entry): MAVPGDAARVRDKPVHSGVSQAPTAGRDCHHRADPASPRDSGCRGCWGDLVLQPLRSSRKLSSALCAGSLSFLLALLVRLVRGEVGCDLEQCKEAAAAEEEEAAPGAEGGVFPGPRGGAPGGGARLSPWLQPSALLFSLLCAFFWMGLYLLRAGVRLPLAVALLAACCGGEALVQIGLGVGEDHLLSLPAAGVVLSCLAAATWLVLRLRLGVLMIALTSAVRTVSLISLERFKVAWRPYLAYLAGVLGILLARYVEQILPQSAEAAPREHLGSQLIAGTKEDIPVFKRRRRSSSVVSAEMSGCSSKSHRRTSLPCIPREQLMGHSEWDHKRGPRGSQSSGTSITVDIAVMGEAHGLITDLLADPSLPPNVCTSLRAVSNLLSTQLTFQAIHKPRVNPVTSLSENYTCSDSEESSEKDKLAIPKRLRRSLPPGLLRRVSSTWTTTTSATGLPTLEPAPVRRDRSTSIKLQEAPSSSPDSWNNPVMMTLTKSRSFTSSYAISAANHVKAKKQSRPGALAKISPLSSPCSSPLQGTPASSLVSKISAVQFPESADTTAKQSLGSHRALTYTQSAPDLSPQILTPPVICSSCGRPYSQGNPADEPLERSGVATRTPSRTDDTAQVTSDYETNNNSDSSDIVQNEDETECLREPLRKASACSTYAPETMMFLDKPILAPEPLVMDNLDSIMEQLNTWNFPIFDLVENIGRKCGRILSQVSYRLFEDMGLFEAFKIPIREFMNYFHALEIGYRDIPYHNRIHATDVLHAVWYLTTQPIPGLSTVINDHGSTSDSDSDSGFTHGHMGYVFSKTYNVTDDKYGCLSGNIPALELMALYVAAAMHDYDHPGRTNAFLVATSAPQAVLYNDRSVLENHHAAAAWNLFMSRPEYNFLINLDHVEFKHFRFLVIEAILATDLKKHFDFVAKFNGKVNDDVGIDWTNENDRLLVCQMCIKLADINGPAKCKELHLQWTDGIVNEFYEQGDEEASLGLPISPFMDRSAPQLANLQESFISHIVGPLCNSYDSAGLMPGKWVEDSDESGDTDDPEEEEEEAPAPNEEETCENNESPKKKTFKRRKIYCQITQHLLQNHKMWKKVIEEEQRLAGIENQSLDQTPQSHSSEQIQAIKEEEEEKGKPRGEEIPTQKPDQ
T4 sequence (O60674 840-1132 limits assumed): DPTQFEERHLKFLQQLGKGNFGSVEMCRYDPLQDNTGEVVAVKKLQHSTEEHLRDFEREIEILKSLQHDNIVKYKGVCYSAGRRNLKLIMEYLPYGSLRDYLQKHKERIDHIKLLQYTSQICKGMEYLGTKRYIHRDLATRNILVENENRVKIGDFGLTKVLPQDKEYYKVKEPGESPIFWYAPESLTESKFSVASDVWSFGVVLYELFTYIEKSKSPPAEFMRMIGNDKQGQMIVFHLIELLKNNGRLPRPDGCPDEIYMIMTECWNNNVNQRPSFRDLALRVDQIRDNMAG

**Q.** Which “Maximum Inhibition (%)” value (Human Bicep myofibrils; human bicep myofibrils) does the source give for `O=c1ccc(-c2cnc(OCC(F)(F)F)nc2)nn1Cc1cncc(F)c1` [EDG-5506] here?
**A.** Its value is 89%.

**Q.** What about the IC50 (Human Bicep myofibrils; human bicep, 50% Type I, 50% IIa, IIx) of the same molecule?
**A.** Its IC50 is 1.2 µM.

**Q.** And the “effect on force, slow skeletal fibers” value [1]?
**A.** Its value is “no effect”.

**Q.** And the wheel running (WT and mdx mice)?
**A.** The wheel running was “no effect”.

**Q.** And the “binding, % of control” value (CDK9)?
**A.** Its value is 96 % of control.

**Q.** And the “binding, % of control” value (ERBB2)?
**A.** The value was 76 % of control.

**Q.** And the “binding, % of control” value (GSK3B)?
**A.** The value was 99 % of control.

**Q.** What about the “binding, % of control” value [2] of the same molecule?
**A.** Its value is 83 % of control.

**Q.** What about the “binding, % of control” value [3] of the same molecule?
**A.** Its value is 100 % of control.

**Q.** And the “binding, % of control” value (LKB1)?
**A.** Its value is 86 % of control.

**Q.** And the “binding, % of control” value (PLK3)?
**A.** The value was 95 % of control.

**Q.** And the Emax (GR; read-out: Max Response (%) (Agonist))?
**A.** The Emax was 0.41%.

**Q.** What about the Max inhibition (antagonist mode) (GR; read-out: Max Response (%) (Antagonist)) of the same molecule?
**A.** Its Max inhibition (antagonist mode) is 33.6%.

**Q.** And the Emax (AChE)?
**A.** Its Emax is 16.4%.

**Q.** What about the Emax (COX1) of the same molecule?
**A.** The Emax was 4.78%.

**Q.** What about the Emax (COX2) of the same molecule?
**A.** Its Emax is 3.26%.

**Q.** And the Emax (MAOA)?
**A.** The Emax was 7.79%.

**Q.** What about the Emax (PDE3A) of the same molecule?
**A.** Its Emax is 0.91%.

**Q.** What about the Emax (PDE4D2) of the same molecule?
**A.** Its Emax is 7.16%.
